From ChEMBL document CHEMBL1134202, “Selectivity of inhibition of matrix metalloproteases MMP-3 and MMP-2 by succinyl hydroxamates and their carboxylic acid analogues is dependent on P3' group chirality” (Bioorg Med Chem Lett, 2001)
pIC50, pKi: −log10 of the molar value.

Experiments:
[1] = target: Matrix metalloproteinase-14 (Homo sapiens, UniProt P50281)
[2] = target: Matrix metalloproteinase-9 (Homo sapiens, UniProt P14780)
Stromelysin-1 = Stromelysin-1 (Homo sapiens, UniProt P08254)
Stromelysin-1, sequence (P08254 whole entry): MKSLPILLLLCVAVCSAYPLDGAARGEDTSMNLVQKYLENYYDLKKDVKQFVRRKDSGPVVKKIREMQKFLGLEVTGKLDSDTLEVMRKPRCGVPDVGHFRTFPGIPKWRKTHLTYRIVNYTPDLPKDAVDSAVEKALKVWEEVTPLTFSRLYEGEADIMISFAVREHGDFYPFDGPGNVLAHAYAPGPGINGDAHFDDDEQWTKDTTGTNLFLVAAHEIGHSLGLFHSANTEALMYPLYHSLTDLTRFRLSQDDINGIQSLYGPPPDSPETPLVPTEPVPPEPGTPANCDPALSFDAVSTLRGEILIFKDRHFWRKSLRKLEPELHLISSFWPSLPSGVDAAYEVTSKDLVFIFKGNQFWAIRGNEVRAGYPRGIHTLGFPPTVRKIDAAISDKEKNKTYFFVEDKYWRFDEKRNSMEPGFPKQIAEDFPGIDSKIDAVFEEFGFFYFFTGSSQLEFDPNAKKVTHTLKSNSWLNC

Matrix metalloproteinase-9, sequence (P14780 whole entry): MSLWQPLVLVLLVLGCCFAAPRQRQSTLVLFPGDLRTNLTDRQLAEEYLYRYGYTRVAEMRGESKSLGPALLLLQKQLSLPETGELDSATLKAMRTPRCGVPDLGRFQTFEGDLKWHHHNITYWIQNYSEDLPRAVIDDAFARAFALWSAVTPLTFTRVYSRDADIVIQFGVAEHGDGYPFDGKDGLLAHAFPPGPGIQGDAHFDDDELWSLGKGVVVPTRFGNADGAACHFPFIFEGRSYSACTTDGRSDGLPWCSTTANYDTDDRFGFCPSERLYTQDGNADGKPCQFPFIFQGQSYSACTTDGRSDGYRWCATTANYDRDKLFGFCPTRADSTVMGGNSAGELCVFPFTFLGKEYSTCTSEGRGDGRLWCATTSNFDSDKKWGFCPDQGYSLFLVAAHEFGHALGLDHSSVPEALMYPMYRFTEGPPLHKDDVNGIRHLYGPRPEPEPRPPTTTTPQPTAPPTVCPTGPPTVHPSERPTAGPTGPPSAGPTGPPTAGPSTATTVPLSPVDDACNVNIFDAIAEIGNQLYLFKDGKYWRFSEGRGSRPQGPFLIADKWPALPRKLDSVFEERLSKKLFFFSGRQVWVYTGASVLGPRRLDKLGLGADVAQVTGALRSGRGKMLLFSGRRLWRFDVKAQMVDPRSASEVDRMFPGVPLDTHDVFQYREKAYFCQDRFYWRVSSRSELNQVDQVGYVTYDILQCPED

Row | SMILES | pIC50 [1] | pIC50 [2] | pKi (Stromelysin-1)
1 | CNC(=O)[C@H](Cc1ccccc1)NC(=O)[C@H](CC(C)C)[C@H](CSc1cccs1)C(=O)NO [BATIMASTAT] | 8.54 | 9.17 | 
2 | CNC(=O)[C@H](Cc1c[nH]c2ccccc12)NC(=O)[C@@H](CC(=O)NO)CC(C)C [ILOMASTAT] |  |  | 7.59
